# pKi: −log10 of the molar value.
# What was measured:
# [1] = molecular target: T1, human vasopressin V1b receptor (Homo sapiens, UniProt P47901); assay: Vasopressin V1b receptor binding assay; conditions: CHO-K1 membranes, 3H-AVP displacement
# T1 construct: expressed in transfected cells; host or cells: CHO-K1 (cell line hV1b_3H2_CHO), membrane preparation
# T1 sequence (P47901 1-424): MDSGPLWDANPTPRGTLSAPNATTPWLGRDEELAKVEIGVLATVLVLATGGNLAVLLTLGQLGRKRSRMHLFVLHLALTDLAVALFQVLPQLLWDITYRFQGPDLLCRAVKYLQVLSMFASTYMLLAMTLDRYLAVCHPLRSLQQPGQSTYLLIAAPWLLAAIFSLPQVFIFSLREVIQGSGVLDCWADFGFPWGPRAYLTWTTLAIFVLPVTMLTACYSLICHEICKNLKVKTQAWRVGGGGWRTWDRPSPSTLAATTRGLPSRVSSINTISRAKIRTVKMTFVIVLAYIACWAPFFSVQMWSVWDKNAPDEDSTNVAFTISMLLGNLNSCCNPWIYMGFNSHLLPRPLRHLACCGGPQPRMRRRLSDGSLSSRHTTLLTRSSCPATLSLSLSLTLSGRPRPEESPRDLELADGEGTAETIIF
# Protocol: 1. Vasopressin V1b Receptor Binding Assay:
# The test substances were dissolved in a concentration of 10^−2 M in DMSO and further diluted to 5×10^−4 M to 5×10^−3 M. These serial DMSO predilutions were diluted 1:10 with assay buffer. The substance concentration was further diluted 1:5 in the assay mixture (2% DMSO in the mixture).
# (§1) CHO-K1 cells with stably expressed human vasopressin V1b receptor (clone 3H2) were harvested and homogenized in 50 mM Tris-HCl and in the presence of protease inhibitors (Roche complete Mini #1836170) using a Polytron homogenizer at intermediate setting for 2×10 seconds, and subsequently centrifuged at 40 000×g for 1 h. The membrane pellet was again homogenized and centrifuged as described and subsequently taken up in 50 mM Tris-HCl, pH 7.4, homogenized and stored in aliquots frozen in liquid nitrogen at −190° C.
# (§2) The binding assay was carried out by the method based on that of Tahara et al. (Tahara A et al., Brit. J. Pharmacol. 125, 1463-1470 (1998)).
# (§3) The incubation buffer was: 50 mM Tris, 10 mM MgCl2, 0.1% BSA, pH 7.4.
# In the assay mixture (250 μl), membranes (50 μg/ml protein in incubation buffer) from CHO-K1 cells with stably expressed human V1b receptors (cell line hV1b—3H2_CHO) were incubated with 1.5 nM ^3H-AVP (8-Arg-vasopressin, PerkinElmer #18479) in incubation buffer (50 mM Tris, 10 mM MgCl2, 0.1% BSA, pH 7.4) (total binding) or additionally with increasing concentrations of test substance (displacement experiment). The nonspecific binding was determined with […] (Bachem #H1780). All determinations were carried out as triplicate determinations. After incubation (60 minutes at room temperature), the free radioligand was filtered off by vacuum filtration (Skatron cell harvester 7000) through Wathman GF/B glass fiber filter mats, and the filters were transferred into scintillation vials. The liquid scintillation measurement took place in a model 2000 or 2200CA Tricarb instrument (Packard). Conversion of the measured cpm into dpm was carried out with the aid of a standard quench series.
# (§4) The binding parameters were calculated by nonlinear regression in SAS. The algorithms of the program operate in analogy to the LIGAND analysis program (Munson P J and Rodbard D, Analytical Biochem. 107, 220-239 (1980)). The Kd of ^3H-AVP for the recombinant human V1b receptors is 0.4 nM and was used to determine the Ki.
# human oxytocin receptors = molecular target: T2, human oxytocin receptors (Homo sapiens, UniProt P30559); assay: Oxytocin receptor binding assay; conditions: selectivity quotient
# T2 construct: expressed in transfected cells; host or cells: HEK-293, transient expression; lysed and homogenized cells
# T2 sequence (P30559 1-389): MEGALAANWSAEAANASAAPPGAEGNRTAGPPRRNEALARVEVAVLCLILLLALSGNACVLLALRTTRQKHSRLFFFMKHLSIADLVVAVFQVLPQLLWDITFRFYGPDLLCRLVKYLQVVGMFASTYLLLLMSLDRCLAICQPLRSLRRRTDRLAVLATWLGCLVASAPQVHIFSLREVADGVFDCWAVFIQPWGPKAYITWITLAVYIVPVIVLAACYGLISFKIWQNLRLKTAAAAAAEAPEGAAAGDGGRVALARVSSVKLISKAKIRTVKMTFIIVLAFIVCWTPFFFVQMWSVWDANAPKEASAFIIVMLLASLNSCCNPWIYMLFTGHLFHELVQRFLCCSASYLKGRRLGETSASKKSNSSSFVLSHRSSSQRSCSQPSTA
# Protocol: 4. Oxytocin Receptor Binding Assay
# The substances were dissolved in a concentration of 10^−2 M in DMSO and diluted with incubation buffer (50 mM Tris, 10 mM MgCl2, 0.1% BSA, pH 7.4).
# Confluent HEK-293 cells with transiently expressing recombinant human oxytocin receptors were centrifuged at 750×g at room temperature for 5 minutes. The residue was taken up in ice-cold lysis buffer (50 mM Tris-HCl, 10% glycerol, pH 7.4 and Roche complete protease inhibitor) and subjected to an osmotic shock at 4° C. for 20 minutes. The lyzed cells were then centrifuged at 750×g at 4° C. for 20 minutes, the residue was taken up in incubation buffer, and aliquots of 10^7 cells/ml were prepared. The aliquots were frozen at −80° C. until used.
# On the day of the experiment, the cells were thawed, diluted with incubation buffer and homogenized using a Multipette Combitip (Eppendorf, Hamburg). The reaction mixture of 0.250 ml was composed of 2 to 5×10^4 recombinant cells, 3-4 nM ^3H-oxytocin (PerkinElmer, NET 858) in the presence of test substance (inhibition plot) or only incubation buffer (total binding). The nonspecific binding was determined with 10^−6 M oxytocin (Bachem AG, H2510). Triplicate determinations were set up. Bound and free radioligand were separated by filtration under vacuum with Whatman GF/B glass fiber filters with the aid of a Skatron cell harvester 7000. The bound radioactivity was determined by liquid scintillation measurement in a Tricarb Beta counter, model 2000 or 2200CA (Packard).
# The binding parameters were calculated by nonlinear regression analysis (SAS) in analogy to the LIGAND program of Munson and Rodbard (Analytical Biochem 1980; 107: 220-239). The Kd of ^3H-oxytocin for the recombinant hOT receptors is 7.6 nM and was used to determine the Ki.
# [2] = molecular target: T3, human vasopressin V1a receptor (Homo sapiens, UniProt P37288); assay: Vasopressin V1a receptor binding assay; conditions: selectivity quotient, human receptors
# T3 construct: expressed in transfected cells; host or cells: CHO-K1 (cell line hV1a_5_CHO), membrane preparation
# Protocol: 2. Vasopressin V1a Receptor Binding Assay:
# The test substances were dissolved in a concentration of 10^−2 M in DMSO. Further dilution of these DMSO solutions took place in incubation buffer (50 mM Tris, 10 mM MgCl2, 0.1% BSA, pH 7.4).
# as §1, with “V1a” for “V1b”, “5)” for “3H2)”
# as §2, §3
# In the assay mixture (250 μl), membranes (20 μg/ml protein in incubation buffer) from CHO-K1 cells with stably expressed human V1a receptors (cell line hV1a—5_CHO) were incubated with 0.04 nM ^125I-AVP (8-Arg-vasopressin, NEX 128) in incubation buffer (50 mM Tris, 10 mM MgCl2, 0.1% BSA, pH 7.4) (total binding) or additionally with increasing concentrations of test substance (displacement experiment). The nonspecific binding was determined with 1 μM AVP (Bachem #H1780). Triplicate determinations were carried out.
# After incubation (60 minutes at room temperature), the free radioligand was filtered off by vacuum filtration (Skatron cell harvester 7000) through Wathman GF/B glass fiber filter mats, and the filters were transferred into scintillation vials.
# The liquid scintillation measurement took place in a model 2000 or 2200CA Tricarb instrument (Packard). Conversion of the measured cpm into dpm was carried out with the aid of a standard quench series.
# as §4, with “^125I-AVP” for “^3H-AVP”, “hV1a” for “human V1b”, “was determined in saturation experiments. A Kd of 1.33” for “is 0.4”, “nM” for “nM and”
# T3 sequence (P37288 whole entry): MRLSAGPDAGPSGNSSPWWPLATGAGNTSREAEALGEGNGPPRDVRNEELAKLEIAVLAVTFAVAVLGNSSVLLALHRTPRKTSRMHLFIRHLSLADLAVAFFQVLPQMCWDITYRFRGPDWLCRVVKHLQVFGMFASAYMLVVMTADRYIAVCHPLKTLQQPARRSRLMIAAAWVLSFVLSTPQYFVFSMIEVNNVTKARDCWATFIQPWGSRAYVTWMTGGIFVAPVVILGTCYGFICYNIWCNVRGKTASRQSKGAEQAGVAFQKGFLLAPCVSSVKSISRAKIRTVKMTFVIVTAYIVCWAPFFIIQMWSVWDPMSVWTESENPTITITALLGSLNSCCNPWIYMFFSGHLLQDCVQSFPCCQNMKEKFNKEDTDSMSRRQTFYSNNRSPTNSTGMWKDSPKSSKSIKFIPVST
SMILES,pKi [1],Ki(h − OT)/Ki(h − V1b)* (human oxytocin receptors),Ki(h − V1a)/Ki(h − V1b)* [2]
"CCOc1ncccc1C1(NC(=O)N2CCN(C3CCN(C)CC3)CC2)C(=O)N(S(=O)(=O)c2ccc(OC)cc2OC)c2cc(F)c(C#N)cc21 (stereo not drawn) [Example 1, 4-(1-Methylpiperidin-4-yl)piperazin-1-[5-cyano-1-(2,4-dimethoxyphenylsulfonyl)-3-(2-ethoxypyridin-3-yl)-6-fluoro-2-oxo-2,3-dihydro-1H-indol-3-yl]carboxamide]",> 9.00,+++ (>75),+++ (>75)
"CCOc1ncccc1C1(NC(=O)N2CCN(C3CCN(CC)CC3)CC2)C(=O)N(S(=O)(=O)c2ccc(OC)cc2OC)c2cc(F)c(C#N)cc21 (stereo not drawn) [Example 2, 4-(1-Ethylpiperidin-4-yl)piperazine-1-[5-cyano-1-(2,4-dimethoxyphenylsulfonyl)-3-(2-ethoxypyridin-3-yl)-6-fluoro-2-oxo-2,3-dihydro-1H-indol-3-yl]carboxamide]",> 9.00,+++ (>75),+++ (>75)
"CCOc1ncccc1C1(NC(=O)N2CCC(N3CCN(C)CC3)CC2)C(=O)N(S(=O)(=O)c2ccc(OC)cc2OC)c2cc(F)c(C#N)cc21 (stereo not drawn) [Example 3, 4-(4-Methylpiperazin-1-yl)piperidine-1-[5-cyano-1-(2,4-dimethoxyphenylsulfonyl)-3-(2-ethoxypyridin-3-yl)-6-fluoro-2-oxo-2,3-dihydro-1H-indol-3-yl]carboxamide]",> 9.00,+++ (>75),++ (25-75)
"CCOc1ncccc1C1(NC(=O)N2CCC(N3CCN(CC)CC3)CC2)C(=O)N(S(=O)(=O)c2ccc(OC)cc2OC)c2cc(F)c(C#N)cc21 (stereo not drawn) [Example 4, 4-(4-Ethylpiperazin-1-yl)piperidine-1-[5-cyano-1-(2,4-dimethoxyphenylsulfonyl)-3-(2-ethoxypyridin-3-yl)-6-fluoro-2-oxo-2,3-dihydro-1H-indol-3-yl]carboxamide]",> 9.00,+++ (>75),++ (25-75)
"CCOc1ncccc1C1(NC(=O)N2CCN(C3CCN(C)CC3)CC2)C(=O)N(S(=O)(=O)c2ccc(OC)cc2)c2cc(F)c(C#N)cc21 (stereo not drawn) [Example 5, 4-(1-Methylpiperidin-4-yl)piperazine-1-[5-cyano-3-(2-ethoxypyridin-3-yl)-6-fluoro-1-(4-methoxyphenylsulfonyl)-2-oxo-2,3-dihydro-1H-indol-3-yl]carboxamide]",8.00 to 9.00,+++ (>75),+++ (>75)
"CCOc1ncccc1C1(NC(=O)N2CCN(C3CCN(CC)CC3)CC2)C(=O)N(S(=O)(=O)c2ccc(OC)cc2)c2cc(F)c(C#N)cc21 (stereo not drawn) [Example 6, 4-(1-Ethylpiperidin-4-yl)piperazine-1-[5-cyano-3-(2-ethoxypyridin-3-yl)-6-fluoro-1-(4-methoxyphenylsulfonyl)-2-oxo-2,3-dihydro-1H-indol-3-yl]carboxamide]",8.00 to 9.00,+++ (>75),+++ (>75)
"CCOc1ncccc1C1(NC(=O)N2CCC(N3CCN(C)CC3)CC2)C(=O)N(S(=O)(=O)c2ccc(OC)cc2)c2cc(F)c(C#N)cc21 (stereo not drawn) [Example 7, 4-(4-Methylpiperazin-1-yl)piperidine-1-[5-cyano-3-(2-ethoxypyridin-3-yl)-6-fluoro-1-(4-methoxyphenylsulfonyl)-2-oxo-2,3-dihydro-1H-indol-3-yl]carboxamide]",8.00 to 9.00,+++ (>75),+ (10-<25)
"CCOc1ncccc1C1(NC(=O)N2CCC(N3CCN(CC)CC3)CC2)C(=O)N(S(=O)(=O)c2ccc(OC)cc2)c2cc(F)c(C#N)cc21 (stereo not drawn) [Example 8, 4-(4-Ethylpiperazin-1-yl)piperidine-1-[5-cyano-3-(2-ethoxypyridin-3-yl)-6-fluoro-1-(4-methoxyphenylsulfonyl)-2-oxo-2,3-dihydro-1H-indol-3-yl]carboxamide]",8.00 to 9.00,+++ (>75),++ (25-75)

# Reference: patent publication US8546401B2, “5,6-disubstituted oxindole-derivatives and use thereof for treating vasopressin-dependent diseases” (AbbVie Deutschland GmbH & Co. KG, priority 2007, dated 2013)
